Reference: patent US9353088B2, “Crystalline pharmaceutical and methods of preparation and use thereof” (SARcode Bioscience Inc., priority 2009, dated 2016)

Columns and labels:
[1] = tested on: attachment of Jurkat cells to ICAM-1; experiment: T-cell adhesion assay using Jurkat cells; assay type: cell-based, human; details: versus positive control
Method: A reported LFA-1 antagonist was used as the positive control.
Jurkat cells were labeled with an 8 μM solution of BCECF-AM (2′,7′-bis-(2-carboxyethyl)-5-(and -6)-carboxyfluorescein) in growth media at room temperature for 15 minutes. […] Non-adherent cells were removed by washing and centrifugation at 100 g for 1 minute. Adherent cells were determined as adherent fluorescent units on a fluorescent plate reader.

[2] = Phase 1 clinical trial of Ophthalmic Solution, safety and tolerability; assay type: in vivo, human
From the text: The objectives of the trial were to measure safety and tolerability, and pharmacokinetics in tear and plasma. The dosing schedule (OU; Oculus Uterque (each eye or both eyes)) was divided into 3 periods, each separated by a 72-hour wash out interval: once/day×1 day (drug one eye; placebo fellow eye), twice/day×10 days, and thrice/day×10 days, 14-day observation. Slit lamp examination of the eye, BCVA (Best Corrected Visual Acuity), STTs (Schirmer Tear Test), TBUT (Tear Break-Up Time), IOP (Intraocular pressure) were assessed at screening and the beginning and end of each period. For each cohort, masked safety data was reviewed by a Safety Committee prior to allowing dose escalation of the next cohort. A total of 2856 doses (102 drops/subject) were administered over 1148 total subject study days (41 study days/subject) in 56 eyes. All subjects in all cohorts completed the study, and no study drug doses were missed.

LFA-1 = molecular target: T1, LFA-1 (Homo sapiens, UniProt P05107+P20701); experiment: in vitro cell assays (cell attachment and SEB IL-2 release); assay type: cell-based
T1 construct: LFA-1 levels in in vitro cell assays (cell attachment and SEB IL-2 release); endogenous in cells; host or cells: human T-cell lines (HuT 78 / Jurkat) and human PBMC
T1 sequence (P20701 26-1170): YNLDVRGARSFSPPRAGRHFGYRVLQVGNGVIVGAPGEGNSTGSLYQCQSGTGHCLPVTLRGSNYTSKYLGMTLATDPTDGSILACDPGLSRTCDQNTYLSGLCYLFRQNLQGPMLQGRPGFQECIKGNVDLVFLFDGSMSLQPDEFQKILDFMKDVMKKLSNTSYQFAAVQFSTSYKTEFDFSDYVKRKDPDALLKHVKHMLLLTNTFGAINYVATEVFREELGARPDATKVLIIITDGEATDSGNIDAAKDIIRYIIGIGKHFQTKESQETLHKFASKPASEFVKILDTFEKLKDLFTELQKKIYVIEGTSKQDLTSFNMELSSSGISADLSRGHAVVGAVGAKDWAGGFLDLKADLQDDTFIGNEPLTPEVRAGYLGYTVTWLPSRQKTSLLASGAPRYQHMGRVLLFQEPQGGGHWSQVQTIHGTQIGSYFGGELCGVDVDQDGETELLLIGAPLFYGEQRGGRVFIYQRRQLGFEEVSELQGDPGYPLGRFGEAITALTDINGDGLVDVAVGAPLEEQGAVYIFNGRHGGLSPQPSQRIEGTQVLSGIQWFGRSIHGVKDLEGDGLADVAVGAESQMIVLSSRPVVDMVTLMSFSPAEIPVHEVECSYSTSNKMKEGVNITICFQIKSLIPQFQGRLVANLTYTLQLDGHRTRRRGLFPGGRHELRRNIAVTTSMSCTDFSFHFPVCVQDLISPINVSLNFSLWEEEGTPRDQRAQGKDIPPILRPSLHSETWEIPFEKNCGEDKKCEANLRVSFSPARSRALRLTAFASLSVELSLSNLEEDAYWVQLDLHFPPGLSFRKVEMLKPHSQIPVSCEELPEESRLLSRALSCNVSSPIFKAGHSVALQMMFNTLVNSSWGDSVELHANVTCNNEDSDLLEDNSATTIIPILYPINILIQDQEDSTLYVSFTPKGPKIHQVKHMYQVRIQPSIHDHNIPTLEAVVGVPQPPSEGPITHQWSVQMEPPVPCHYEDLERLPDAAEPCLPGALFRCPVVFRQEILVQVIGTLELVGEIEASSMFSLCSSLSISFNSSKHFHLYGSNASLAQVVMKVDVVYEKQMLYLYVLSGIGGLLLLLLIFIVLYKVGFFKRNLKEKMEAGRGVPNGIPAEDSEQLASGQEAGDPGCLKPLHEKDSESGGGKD
T1 sequence (P05107 23-769): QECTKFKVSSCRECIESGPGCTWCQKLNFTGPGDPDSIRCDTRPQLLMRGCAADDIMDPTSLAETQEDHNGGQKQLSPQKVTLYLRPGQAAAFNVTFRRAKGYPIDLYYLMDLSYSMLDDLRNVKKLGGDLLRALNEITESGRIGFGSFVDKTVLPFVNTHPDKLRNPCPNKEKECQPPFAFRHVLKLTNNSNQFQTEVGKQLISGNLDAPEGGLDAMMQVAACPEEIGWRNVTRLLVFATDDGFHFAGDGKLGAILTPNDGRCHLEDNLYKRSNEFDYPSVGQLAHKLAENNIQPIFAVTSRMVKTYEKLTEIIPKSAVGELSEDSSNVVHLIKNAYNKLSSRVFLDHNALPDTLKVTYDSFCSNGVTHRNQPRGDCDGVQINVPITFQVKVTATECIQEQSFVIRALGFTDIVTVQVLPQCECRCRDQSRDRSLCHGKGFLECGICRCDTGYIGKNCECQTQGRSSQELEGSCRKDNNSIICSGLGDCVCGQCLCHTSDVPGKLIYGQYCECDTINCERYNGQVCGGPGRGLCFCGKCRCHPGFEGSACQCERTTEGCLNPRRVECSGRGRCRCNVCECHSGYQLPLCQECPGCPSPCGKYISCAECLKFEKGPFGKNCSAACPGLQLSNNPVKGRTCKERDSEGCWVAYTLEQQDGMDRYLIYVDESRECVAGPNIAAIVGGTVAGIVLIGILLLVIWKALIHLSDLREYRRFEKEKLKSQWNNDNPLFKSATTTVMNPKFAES

[3] = Cardiovascular effects in conscious telemetry-instrumented dogs, IV bolus; assay type: in vivo, dogs (beagles); details: IV bolus injection
[4] = Single dose ocular and IV ADME with [14C]-compound, whole body autoradiography; assay type: in vivo, rats; details: for fecal excretion of administered radioactivity: 0 to 168 hours postdose; for Concentration, Aqueous humor / Concentration, Conjunctiva (bulbar) / Concentration, Conjunctiva (palpebral) / Concentration, Cornea / Concentration, Iris-ciliary body / Concentration, Lens / Concentration, Optic Nerve / Concentration, Retina and Choroid (with RPE) / Concentration, Sclera / Concentration, Vitreous Humor: ocular dosing
[5] = Pilot mini-pig dermal study; assay type: in vivo, mini-pigs; details: DMSO, gel, ointment, lotion at 1%, dermal TID for 7 days
[6] = dog, in vivo
[7] = Single dose ocular tolerance; details: single dose ocular tolerance (10%)
[8] = Tear PK after single topical ocular instillation; details: single topical ocular instillation, 0.1, 1.0 or 3.0%
[9] = Plasma PK after single topical ocular instillation; details: post-dose
[10] = 0.5 hour, topical ocular 1 mg/eye
[11] = 0.5 hour, topical ocular 1 mg/eye, above upper limit of quantification
[12] = 8 hours postdose, topical ocular 1 mg/eye
[13] = 24 hours postdose, topical ocular 1 mg/eye

Which results are given for `CS(=O)(=O)c1cccc(C[C@H](NC(=O)c2c(Cl)cc3c(c2Cl)CCN(C(=O)c2ccc4ccoc4c2)C3)C(=O)O)c1` [Compound of Formula I]?
dose response curve and IC50, Jurkat cell attachment [1]: comparable to that of the known direct competitive LFA-1 antagonist; adverse events considered related to administration ([2]; any dose strength (0.1-5%) or dose regimen, healthy adults): No deaths, discontinuations, serious or severe ocular or non-ocular AEs; total lymphocyte, CD3, CD4, CD8 cell counts ([2]; throughout the trial): no evidence of lymphocyte or neutrophil suppression; overall safety and tolerability ([2]; topical ocular instillation, dose strengths up to 5% TID): safe and well-tolerated; IC50 (LFA-1): 2 nM; effects on electrocardiography or hemodynamic parameters [3]: No effects; radioactivity concentration, eye [4, 10]: 18100 ng equivalents [^14C]-compound of Formula I/g; radioactivity concentration, kidney [4, 10]: 151 ng equivalents [^14C]-compound of Formula I/g; radioactivity concentration, liver [4, 10]: 272 ng equivalents compound of Formula I/g; radioactivity concentration, uveal tract [4, 10]: 9330 ng equivalents [^14C]-compound of Formula I/g; radioactivity concentration, esophageal contents ([4]; 0.5 hour, topical ocular 1 mg/eye, male Sprague Dawley, above upper limit of quantification): 399000 ng equivalents [^14C]-compound of Formula I/g; radioactivity concentration, nasal turbinates [4, 11]: 352000 ng equivalents [^14C]-compound of Formula I/g; radioactivity concentration, small intestinal contents [4, 11]: 349000 ng equivalents [^14C]-compound of Formula I/g; radioactivity concentration, cecum contents [4, 12]: 57600 ng equivalents [^14C]-compound of Formula I/g; radioactivity concentration, large intestinal contents [4, 12]: 133000 ng equivalents [^14C]-compound of Formula I/g; radioactivity concentration, uveal tract ([4]; 12 hours postdose, topical ocular 1 mg/eye): 610 ng equivalents [^14C]-compound of Formula I/g; radioactivity concentration, cecum contents [4, 13]: 5870 ng equivalents [^14C]-compound of Formula I/g; radioactivity concentration, large intestinal contents [4, 13]: 18000 ng equivalents [^14C]-compound of Formula I/g; fecal excretion of administered radioactivity ([4]; IV administration 10 mg/kg): ~95%; decline of radioactivity concentration, esophageal contents ([4]; at 2 hours postdose): ~100 fold; decline of radioactivity concentration, esophagus ([4]; at 2 hours postdose): approximately 50 fold; levels in conjunctiva/cornea ([4]; for 16 hrs, rat): > 100 nM; fecal excretion of administered radioactivity ([4]; ocular administration 1 mg/eye): approximately 60%; Concentration, Aqueous humor ([4]; 0.5 hour after administration): 1770 ng Equivalents [^14C]-compound of Formula I/g tissue; Concentration, Conjunctiva (bulbar) ([4]; 0.5 hour after administration): 31500 ng Equivalents [^14C]-compound of Formula I/g tissue; Concentration, Conjunctiva (palpebral) ([4]; 0.5 hour after administration): 26300 ng Equivalents [^14C]-compound of Formula I/g tissue; Concentration, Cornea ([4]; 0.5 hour after administration): 17150 ng Equivalents [^14C]-compound of Formula I/g tissue; Concentration, Iris-ciliary body ([4]; 0.5 hour after administration): 17550 ng Equivalents [^14C]-compound of Formula I/g tissue; Concentration, Lens ([4]; 0.5 hour after administration): 38.8 ng Equivalents [^14C]-compound of Formula I/g tissue; Concentration, Optic Nerve ([4]; 0.5 hour after administration): 796 ng Equivalents [^14C]-compound of Formula I/g tissue; Concentration, Retina and Choroid (with RPE) ([4]; 0.5 hour after administration): 510 ng Equivalents [^14C]-compound of Formula I/g tissue; Concentration, Sclera ([4]; 0.5 hour after administration): 2750 ng Equivalents [^14C]-compound of Formula I/g tissue; Concentration, Vitreous Humor ([4]; 0.5 hour after administration): 1330 ng Equivalents [^14C]-compound of Formula I/g tissue; Concentration, Aqueous humor ([4]; 4.0 hours after administration): 116 ng Equivalents [^14C]-compound of Formula I/g tissue; Concentration, Conjunctiva (bulbar) ([4]; 4.0 hours after administration): 4480 ng Equivalents [^14C]-compound of Formula I/g tissue; Concentration, Conjunctiva (palpebral) ([4]; 4.0 hours after administration): 21830 ng Equivalents [^14C]-compound of Formula I/g tissue; Concentration, Cornea ([4]; 4.0 hours after administration): 1346 ng Equivalents [^14C]-compound of Formula I/g tissue; Concentration, Iris-ciliary body ([4]; 4.0 hours after administration): 500 ng Equivalents [^14C]-compound of Formula I/g tissue; Concentration, Lens ([4]; 4.0 hours after administration): 9.69 ng Equivalents [^14C]-compound of Formula I/g tissue; Concentration, Optic Nerve ([4]; 4.0 hours after administration): 0 ng Equivalents [^14C]-compound of Formula I/g tissue; Concentration, Retina and Choroid (with RPE) ([4]; 4.0 hours after administration): 46.7 ng Equivalents [^14C]-compound of Formula I/g tissue; Concentration, Sclera ([4]; 4.0 hours after administration): 387 ng Equivalents [^14C]-compound of Formula I/g tissue; Concentration, Vitreous Humor ([4]; 4.0 hours after administration): 183 ng Equivalents [^14C]-compound of Formula I/g tissue; Urinary excretion of administered radioactivity ([4]; ocular or IV): up to 2%; melanin binding ([4]; tissue distribution in pigmented vs albino rats): did not preferentially bind to melanin; metabolites in pooled plasma, urine and fecal homogenates ([4]; up to 168 hrs after topical ocular or IV dose): no metabolites were isolated; toxicity [5]: No toxicity was reported; level in vitreous fluid [6]: not detected; NOAEL [7]: 3.5 mg/eye/3× per day; time to maximal mean tear concentration [8]: ≤ 30 min; time of maximum plasma concentration [9]: about 0.25 hrs
